We go through eleven compounds from article PMC8037530, “Synthesis and Hybrid SAR Property Modeling of Novel Cholinesterase Inhibitors” (International Journal of Molecular Sciences, 2021).

Where two headings read alike, the source gives them in different places.

Usually viability stands for a read-out of living cells in per cent, often relative to untreated cells. What is called IC50 is the concentration at which inhibition is half-maximal.

Data set [1] can be described thus: In vitro cell viability assay (CCK-8). In kind it is cell-based. The following applies: human, THP-1 cells (human monocytic leukemia), read-out: relative cell viability. As for the experimental part:
The human monocytic leukemia THP-1 cell line was selected for this purpose, as we described previously. Nor 2 neither 28 show negative effect on relative cell viability up to the concentration of 30 µM. The relative cell viability was around 100% at this concentration. It makes compounds 2 and 28 interesting for further pharmacological evaluation and allows them to become lead compounds.
Human monocytic leukemia THP-1 cells were used for in vitro antiproliferative assays. Cells were obtained from the European Collection of Cell Cultures (ECACC, Salisbury, UK) and routinely cultured in Roswell Park Memorial Institute RPMI 1640 medium supplemented with 10% fetal bovine serum (FBS), 2% L-glutamine, 1% penicillin and streptomycin (all from Sigma-Aldrich) at 37 °C with 5% CO2. Cells were passaged twice a week. The effect of the compounds on cell viability was determined using a Cell Counting Kit-8 (CCK-8, 2-(2-methoxy-4-nitrophenyl)-3-(4-nitrophenyl)-5-(2,4-disulfophenyl)-2H-tetrazolium, monosodium salt, Sigma) according to the manufacturer’s instructions. The compounds were dissolved in DMSO and added to the cell suspension in the RPMI 1640 medium without FBS (5 × 10^5 cells/mL). […] After this incubation period, the relative cell viability (the ratio between cells treated with compounds and cells treated only with DMSO) was determined by CCK-8 kit.

For another data set, the target named is T1, BChE from equine serum (Equus caballus, UniProt P81908).
T1 construct: BChE from equine serum; purchased Sigma, St. Louis, MO, USA; host or cells: equine serum
Briefly: In vitro BChE inhibition, modified Ellman's method. It is filed as biochemical. Particulars: for SI (index selectivity) = IC50 (AChE)/IC50 (BChE): ratio IC50 AChE/IC50 BChE. As for the experimental part: (§1) The ability of all the prepared compounds to inhibit AChE from electric eel (Electrophorus electricus) and BChE from equine serum (both purchased from Sigma, St. Louis, MO, USA) was determined in vitro using a modified Ellman’s method, as described in detail elsewhere. This is a simple, rapid, and direct method to determine the SH and -S-S- group content in proteins. The enzyme activity is measured indirectly by quantifying the concentration of the 5-thio-2-nitrobenzoic acid ion formed in the reaction between the thiol reagent 5,5’-dithiobis-2nitrobenzoic acid (DTNB) and thiocholine, which is a product of acetylthiocholine hydrolysis catalyzed by cholinesterases. The effectiveness of the tested inhibitors is expressed as the IC50 values.
(§2) The enzyme activity in the final reaction mixture (2 mL) was 0.2 U/mL, the concentration of the substrate (acetylthiocholine or butyrythiocholine) was 40 µM, and the concentration of DTNB was 0.1 mM for all reactions. All reactions were carried out at 25 °C in the presence of phosphate-buffered saline (0.1 M, pH 7.4) in a glass cuvette with a 1 cm optical path. All the studied inhibitors were dissolved in DMSO (concentration 0.01 M) and then diluted in demineralized water as necessary. […] All measurements were carried out in triplicate, and the average values of the reaction rate (v0—reaction in the absence of the inhibitor, vi—reaction in the presence of the inhibitor) were used for construction of the dependence v0/vi vs. concentration of the inhibitor.
For orientation: In Ellman's method for cholinesterases, released thiocholine reacts with DTNB.

The target of data set [2] is T2, AChE from electric eel (Electrophorus electricus) (Electrophorus electricus, UniProt O42275).
T2 construct: purchased Sigma, St. Louis, MO, USA
Briefly: In vitro AChE inhibition, modified Ellman's method. In kind it is biochemical. As for the experimental part:
as §1, §2

Data set [3] can be described thus: Determination of lipophilicity by RP-HPLC (capacity factor k). Particulars: C18, isocratic MeOH 72%/H2O 28%, 40 °C. In kind it is physicochemical. On the procedure:
The lipophilicity of all the target compounds was investigated by means of RP-HPLC determination of capacity factors k with a subsequent calculation of log k. The retention times of individual compounds were determined under isocratic conditions with methanol as an organic modifier in the mobile phase using end-capped non-polar C18 stationary RP columns.
The HPLC separation system Agilent 1200 series equipped with a DAD SL (Agilent Technologies) was used. A chromatographic column Symmetry® C18 5 μm, 4.6 × 250 mm, Part No. W21751W016 (Waters Corp., Milford, MA, USA) was applied. The HPLC separation process was monitored by the ChemStation for LC 3D chromatography software (Agilent Technologies). Isocratic elution by a mixture of MeOH p.a. (72%) and H2O-HPLC Mili-Q grade (28%) as a mobile phase was used for the determination of the capacity factor k. The total flow of the column was 1.0 mL/min, injection 20 μL, column temperature 40 °C, and sample temperature 10 °C. The detection wavelength of 210 nm was chosen. A KI methanolic solution was used for the determination of the dead times (tD). Retention times (tR) were measured in minutes. The capacity factors k were calculated according to the formula k = (tR − tD)/tD, where tR is the retention time of the solute and tD is the dead time obtained using an unretained analyte. Each experiment was repeated three times.

T2 sequence (O42275 24-633): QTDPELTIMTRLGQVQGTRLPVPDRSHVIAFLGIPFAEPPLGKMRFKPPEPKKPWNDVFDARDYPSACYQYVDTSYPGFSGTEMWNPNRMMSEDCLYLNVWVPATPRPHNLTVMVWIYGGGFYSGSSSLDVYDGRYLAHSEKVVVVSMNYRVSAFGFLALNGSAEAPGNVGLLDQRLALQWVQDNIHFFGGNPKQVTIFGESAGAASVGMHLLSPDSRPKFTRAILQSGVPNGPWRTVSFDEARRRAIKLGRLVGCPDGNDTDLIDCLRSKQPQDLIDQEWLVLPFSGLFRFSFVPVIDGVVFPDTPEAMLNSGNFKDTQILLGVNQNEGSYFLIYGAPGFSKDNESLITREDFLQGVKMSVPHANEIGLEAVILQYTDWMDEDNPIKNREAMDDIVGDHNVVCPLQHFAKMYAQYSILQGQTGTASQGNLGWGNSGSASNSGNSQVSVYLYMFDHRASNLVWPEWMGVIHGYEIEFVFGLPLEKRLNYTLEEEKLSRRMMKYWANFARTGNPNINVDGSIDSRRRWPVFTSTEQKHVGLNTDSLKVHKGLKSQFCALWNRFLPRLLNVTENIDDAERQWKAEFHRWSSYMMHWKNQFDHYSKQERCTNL
T1 sequence (P81908 whole entry): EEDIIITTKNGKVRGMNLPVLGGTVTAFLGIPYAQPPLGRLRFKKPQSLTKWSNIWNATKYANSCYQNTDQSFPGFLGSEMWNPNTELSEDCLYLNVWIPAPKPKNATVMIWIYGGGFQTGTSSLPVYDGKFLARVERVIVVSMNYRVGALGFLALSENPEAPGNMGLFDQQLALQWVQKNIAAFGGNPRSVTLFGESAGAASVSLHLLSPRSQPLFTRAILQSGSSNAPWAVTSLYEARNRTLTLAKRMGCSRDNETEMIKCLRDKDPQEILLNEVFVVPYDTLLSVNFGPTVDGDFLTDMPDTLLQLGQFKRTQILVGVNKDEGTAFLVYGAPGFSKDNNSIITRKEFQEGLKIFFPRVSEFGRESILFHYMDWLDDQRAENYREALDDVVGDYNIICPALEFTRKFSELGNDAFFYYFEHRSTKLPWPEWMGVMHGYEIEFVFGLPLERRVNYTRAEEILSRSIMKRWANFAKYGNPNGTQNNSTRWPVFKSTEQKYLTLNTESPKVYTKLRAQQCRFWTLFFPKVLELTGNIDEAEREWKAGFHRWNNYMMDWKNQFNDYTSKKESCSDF

For `COc1ccccc1NC(=O)c1ccc(NC(=O)OCc2ccccc2)cc1O` [Compound 2, Benzyl{3-hydroxy-4-[(2-methoxyphenyl)carbamoyl]phenyl}carbamate], in data set [1], the viability at 24 h, 30 µM was roughly 100%. Moreover, on BChE from equine serum, half-maximal inhibition (IC50) was put at 22.2 ± 0.53 µM and the “SI (index selectivity) = IC50 (AChE)/IC50 (BChE)” value (shortened to “SI (index selectivity) = IC50”) stood at 2.26. In data set [2], this compound gave an IC50 of 50.1 ± 1.57 µM. In data set [3], this compound displayed a log k of 0.3368.
Regarding `O=C(Nc1ccc(C(=O)Nc2cc(Cl)ccc2Cl)c(O)c1)OCc1ccccc1` [Compound 22, Benzyl{4-[(2,5-dichlorophenyl)carbamoyl]-3-hydroxyphenyl}carbamate], at BChE from equine serum, half-maximal inhibition (IC50) required 141 ± 7.12 µM and the “SI (index selectivity) = IC50” value was 0.70. The compound further gave an IC50 in data set [2] of 99.14 ± 0.2 µM. For the same compound, in data set [3], the log k is reported as 0.6138.
Consider `O=C(Nc1ccc(C(=O)Nc2c(Cl)cccc2Cl)c(O)c1)OCc1ccccc1` [Compound 23, Benzyl{4-[(2,6-dichlorophenyl)carbamoyl]-3-hydroxyphenyl}carbamate], for which the results for the IC50 (at BChE from equine serum; in data set [2]) were 117.6 ± 1.11 µM and 76.74 ± 0.74 µM, respectively. In addition, on BChE from equine serum, the “SI (index selectivity) = IC50” value stood at 0.65. Also, the log k in data set [3] came to 0.8125.
Taken in the same sequence, the figures for `O=C(Nc1ccc(C(=O)Nc2ccc(Cl)c(Cl)c2)c(O)c1)OCc1ccccc1` [Compound 24, Benzyl{4-[(3,4-dichlorophenyl)carbamoyl]-3-hydroxyphenyl}carbamate] were 185 ± 6.13 µM, 58 ± 5.83 µM, 0.31 and 0.6664.
On the same counts, the results for `O=C(Nc1ccc(C(=O)Nc2cc(Cl)cc(Cl)c2)c(O)c1)OCc1ccccc1` [Compound 25, Benzyl{4-[(3,5-dichlorophenyl)carbamoyl]-3-hydroxyphenyl}carbamate] are 143 ± 3.69 µM, 50.62 ± 0.38 µM, 0.35 and 0.9084.
Taken in the same sequence, the figures for `O=C(Nc1ccc(C(=O)Nc2ccc(Br)cc2Br)c(O)c1)OCc1ccccc1` [Compound 26, Benzyl{4-[(2,4-dibromophenyl)carbamoyl]-3-hydroxyphenyl}carbamate] were 262 ± 5.1 µM, 94.9 ± 0.97 µM, 0.36 and 0.7366.
On to `O=C(Nc1ccc(C(=O)Nc2cc(C(F)(F)F)cc(C(F)(F)F)c2)c(O)c1)OCc1ccccc1` [Compound 27, Benzyl{4-[(3,5-di(trifluoromethyl))carbamoyl]-3-hydroxyphenyl}carbamate], for which the IC50 was 146 ± 2.65 µM on BChE from equine serum (mean ± SD, n = 3, equine serum BChE, 25 °C, pH 7.4, read-out: IC50 BChE) and 59.4 ± 3.38 µM in data set [2] (mean ± SD, n = 3, electric eel AChE, 25 °C, pH 7.4, read-out: IC50 AChE). Further, the “SI (index selectivity) = IC50” value at BChE from equine serum came to 0.41. The compound also displayed a log k in data set [3] of 0.9667.
In the case of `O=C(Nc1ccc(C(=O)Nc2c(F)cc(F)cc2F)c(O)c1)OCc1ccccc1` [Compound 28, Benzyl{3-hydroxy-4-[(2,4,6-trifluorophenyl)carbamoyl]phenyl}carbamate], the viability at 24 h, 30 µM in data set [1] was roughly 100%. Also, the figures for the IC50 (against BChE from equine serum; in data set [2]) were 31 ± 2.11 µM and 49.87 ± 0.09 µM, respectively. For the same compound, the “SI (index selectivity) = IC50” value at BChE from equine serum is given as 1.61. In data set [3], the log k is -0.0131.
For the compound `O=C(Nc1ccc(C(=O)Nc2cc(F)c(F)c(F)c2)c(O)c1)OCc1ccccc1` [Compound 29, Benzyl{3-hydroxy-4-[(3,4,5-trifluorophenyl)carbamoyl]phenyl}carbamate], on BChE from equine serum, inhibition was half-maximal at 183.7 ± 0.75 µM (IC50) and the “SI (index selectivity) = IC50” value is recorded as 0.34. The compound also registered an IC50 in data set [2] of 62.3 ± 0.75 µM. Moreover, the log k in data set [3] was 0.5169.
Taken in the same sequence, the figures for `O=C(Nc1ccc(C(=O)Nc2c(Cl)cc(Cl)cc2Cl)c(O)c1)OCc1ccccc1` [Compound 31, Benzyl{3-hydroxy-4-[(2,4,6-trichlorophenyl)carbamoyl]phenyl}carbamate] were 57.1 ± 1.72 µM, 1.63, 93.1 ± 1.8 µM and 0.3679.
Consider `O=C(Nc1ccc(C(=O)Nc2c(Br)cc(Br)cc2Br)c(O)c1)OCc1ccccc1` [Compound 32, Benzyl{3-hydroxy-4-[(2,4,6-tribromophenyl)carbamoyl]phenyl}carbamate], for which the IC50 at BChE from equine serum turned out to be 56 ± 0.58 µM; in data set [2] it was 65.9 ± 2.81 µM. Further, at BChE from equine serum, the “SI (index selectivity) = IC50” value turned out to be 1.18. The same compound displayed a log k in data set [3] of 0.4427.
